According to patent publication US10632209B2, “ASH1L inhibitors and methods of treatment therewith” (The Regents of the University of Michigan, priority 2017, dated 2020):
pIC50: −log10 of the molar value.

Assays:
MV4;11 cells = experiment: Differentiation of MV4;11 cells (Cytospin/Wright-Giemsa staining); assay type: cell-based, Human; settings: 7 days of treatment
Description: Cytospin/Wrigtht-Giemsa Staining
1×10^5 of MV4;11 cells treated with compounds or DMSO were harvested and placed in a Shandon EZ Single Cytofunnel (Thermo Fisher). Samples were centrifuged at 600 rpm for 5 min. The slides were air dried before staining with a Hema-3 kit (Thermo Fisher).

KOPN8 = experiment: MTT cell viability assay, KOPN8; assay type: cell-based, Human; settings: KOPN8, 14 days of treatment
Description: (§1) Human leukemia cells were plated at 1×10^5 cells/ml in 24-well plates, treated with 0.25% DMSO or compounds and cultured at 37° C. for 7-14 days. Every four days, the volume corresponding to 1×10^5 cells of DMSO-treated cells was spun down and resuspended in fresh media with fresh compound. At day 0 and each four day interval, 100 μl aliquots of the cell suspension were transferred to 96-well plates in quadruplicates. The quadruplicate samples were incubated for 4 days at 37° C., and then an MTT cell proliferation assay kit (Roche) was used to measure viable cells. Absorbance was read at 570 nm using a PHERAstar (BMG) microplate reader.

[1] = tested on: MLL fusion target genes (HOXA genes, MEIS1, MEF2C), MNDA; experiment: Quantitative RT-PCR of MLL fusion target genes and MNDA; assay type: cell-based; settings: dose-dependent manner
Description: Total RNA was extracted from cells using the RNeasy mini kit (QIAGEN), and then 100-2000 ng of total RNA was reverse transcribed using the High Capacity cDNA Reverse Transcription Kit (Applied Biosystems) according to the manufacturer's protocol. Real-time PCR was performed using a CFX96 Real-Time PCR Detection System (Biorad). TaqMan Gene Expression Master Mix and TaqMan Gene Expression Assays were purchased from Thermo Fisher. Relative quantification of each gene transcript was carried out using the ΔΔCt method as described in the Biorad Real-Time PCR Applications Guide.

[2] = tested on: normal human hematopoietic hCD34+ cells; experiment: Toxicity to normal hematopoietic hCD34+ cells; assay type: cell-based
MOLM13 = experiment: MTT cell viability assay, MOLM13; assay type: cell-based, Human; settings: MOLM13, 14 days of treatment
Description: as §1

K562 (CML cell line) = experiment: MTT cell viability assay, K562 control cell line; assay type: cell-based, Human; settings: 14 days of treatment
Description: as §1

SEM cells = experiment: MTT cell viability assay, SEM; assay type: cell-based, Human; settings: 14 days of treatment
Description: as §1

MV4;11 = experiment: MTT cell viability assay, MV4;11; assay type: cell-based, Human; settings: MV4;11, 14 days of treatment
Description: as §1

[3] = molecular target: T1, ASH1L SET-BAH construct (amino acids 2069-2833) (Homo sapiens, UniProt Q9NR48); experiment: ASH1L histone methyltransferase (HMT) assay; assay type: biochemical; settings: read-out: IC50 value measured in histone methyltransferase (HMT) assay
T1 construct: ASH1L SET-BAH construct (amino acids 2069-2833); His tag (implied only by nickel-NTA purification); made in house; host or cells: E. coli BL21(DE3) T1R
Description: ASH1L SET protein was expressed as MOCR fusion proteins in E. coli BL21(DE3) T1R cells at 22° C. Transformed cells were lysed in buffer A containing 50 mM Tris (pH 7.5), 500 mM NaCl, 1 mM tris(2-carboxyethyl)phosphine (TCEP), and 20 mM imidazole. Cell debris was pelleted by centrifugation, and the supernatant was loaded on a column packed with nickel-nitrilotriacetic acid beads. The column was washed with buffer A and protein eluted with a 100 mL linear gradient up to buffer A containing 500 mM imidazole. The MOCR tag was cleaved with tobacco etch virus (TEV) protease during overnight dialysis against 50 mM Tris (pH 7.5), 100 mM NaCl, and 1 mM TCEP. Cleaved ASH1L was isolated from MOCR by repeating the nickel column purification and collecting ASH1L in the flow-through and low-imidazole fractions. ASH1L was further purified by gel filtration chromatography using a Superdex-75 column running in buffer B containing 50 mM Tris (pH 7.5), 100 mM NaCl, and 1 mM TCEP. ASH1L SET-PHD and SET-BAH proteins were purified similarly, with the following differences. […]
Chicken mono/dinucleosomes (HMT-35-179), chicken oligo nucleosomes (HMT-35-177), and HeLa nucleosomes (HMT-35-123) were purchased from Reaction Biology. […] The P81 squares were then dried for 1 h, added to 10 mL of Ultima Gold scintillation cocktail (PerkinElmer), and analyzed using a Beckman scintillation counter.

[4] = tested on: MV4;11 xenotransplantation mouse models of MLL leukemia; experiment: MV4;11 xenotransplantation mouse model of MLL leukemia; assay type: in vivo, mice; settings: i.p.
Description: Immunocompromised 8-10 week-old female NSG mice were used for in vivo efficacy studies in accordance with IACUC guidelines. Luciferase expressing human MV4;11 leukemia cells (MV4;11-luc) were engrafted intravenously via tail vein injection (1×10^7 cells/animal). Five days after transplantation mice were randomly assigned to a vehicle control or a compound treatment group (6-7 animals per group). […] Body weight was measured daily, while mean luminescence signal was measured at days 6, 13 and 19 post-transplantation in all mice. […]

CC1CN(S(C)(=O)=O)CCC1n1cc(-c2cccc(C(N)=S)c2)c2ccc(N)cc21 (centres unmarked) [Compound 22]
differentiation in MV4;11 cells (MV4;11 cells): induces differentiation | growth inhibition / proliferation, MTT assay (KOPN8): growth inhibition | expression level of MNDA differentiation marker [1]: increase the expression level | expression of MLL fusion target genes (HOXA genes, MEIS1, MEF2C) [1]: downregulates expression | toxicity to normal human hematopoietic hCD34+ cells [2]: not toxic | growth inhibition / proliferation, MTT assay (MOLM13): growth inhibition

CC(C)S(=O)(=O)N1CCC(n2cc(-c3cccc(C(N)=S)c3)c3ccc(CNc4nnc(N)s4)cc32)CC1 [Compound 34]
growth inhibition / proliferation, MTT assay (KOPN8): inhibits proliferation | proliferation, MTT cell viability assay (K562 (CML cell line)): but not control cell line K562 | proliferation, MTT cell viability assay (SEM cells): inhibits proliferation | growth inhibition / proliferation, MTT assay (MOLM13): inhibits proliferation | proliferation, MTT cell viability assay (MV4;11): inhibits proliferation

COCCC(=O)Nc1ccc2c(-c3cccc(C(N)=S)c3)cn(C3CCN(S(C)(=O)=O)CC3)c2c1 [Compound 37]
pIC50 [3]: 6.12

Cl.NC(=S)c1cccc(-c2cn(C3CCN(S(=O)(=O)C(F)(F)F)CC3)c3cc(CNC(=O)C4CNC4)ccc23)c1 [Compound 59, N-((3-(3-carbamothioylphenyl)-1-(1-((trifluoromethyl)sulfonyl)piperidin-4-yl)-1H-indol-6-yl)methyl)azetidine-3-carboxamide hydrochloride salt]
leukemia progression, bioluminescence level in mice ([4]; 7 days of treatment, 40 mg/kg, q.d.): slows down leukemia progression | leukemia progression, flow cytometry of hCD45+ cells in spleen ([4]; 21 days of treatment, 25 mg/kg, b.i.d.): inhibits leukemia progression
